Reference: patent US20060009431A1, “Nitrosated and nitrosylated compounds, compositions and methods use” (NitroMed, Inc., priority 2003, published 2006)

System: human coronary artery smooth muscle cells (CASMC)
Test: Vascular smooth muscle cell (SMC) antiproliferation assay
Assay type: cell-based
Settings: Homo sapiens, viable cell count (Trypan Blue exclusion) ~68 hours after compound addition, n=4, read-out: IC 50 for the inhibition of proliferation of vascular smooth muscle cells, Nitrosated and/or Nitrosylated Compound
Method: Suppression of Proliferation of Human Coronary Artery Smooth Muscle Cells (CASMC)
Vascular Smooth Muscle Cell (SMC) Antiproliferation Assay
The cells used in this assay were human coronary artery smooth muscle cells (CASMC) supplied by Clonetics Corp. (San Diego, Calif.). They were maintained in SmGM-2 growth medium (Clonetics Corp.), which consisted of modified MCDB 131 medium supplemented with 5% (v/v) fetal bovine serum (FBS), 0.5 ng/mL human recombinant epidermal growth factor (EGF), 2 ng/mL human recombinant fibroblast growth factor (FGF), 5 μg/mL bovine insulin, 50 μg/mL gentamicin sulfate, and 50 ng/mL amphotericin B under humidified 95% air-5% CO2 at 37° C. Cells were used for experiments up to about 17 cumulative population doublings (i.e., passage 9); at this age they still stained positive for smooth muscle actin, a protein marker for smooth muscle cells.
For the SMC antiproliferation assay, the cells were seeded at 3×10^4 viable cells in 2 mL of SmGM-2 medium per well of a Corning 24 tissue culture well plate (Corning, N.Y.). Stock solutions of the test compounds were prepared just prior to addition to the cells by dissolving in DMSO at a concentration of 1000 times the highest concentration to be assayed. This stock solution was diluted, as required, with DMSO to lower concentrations. On the same day the cells were seeded, but after they had attached and spread out (about 3 hours), each test compound in varying concentrations (2 μL of the diluted stock solutions) was added to four replicate wells (n=4) for each concentration. Control cultures received 2 μL of DMSO per well (n=4). On the following morning, the cultures were examined microscopically and their condition recorded. On the third day after test compound addition (˜68 hours), the cultures were examined microscopically again and the viable cells counted with an hemacytometer following trypsinization with 0.25% trypsin-1 mM EDTA. Trypan Blue dye exclusion was used to discriminate between viable and dead cells. The results were usually presented as % of the control viable cell count (mean±SEM) and were used to determine the IC50 for the inhibition of proliferation of vascular smooth muscle cells.

Row | Structure (SMILES) | IC50 [µM]
1 | C[C@]12CC[C@@H]3c4ccc(OC(=O)c5ccccc5)cc4CC[C@H]3[C@@H]1CC[C@@H]2OC(=O)CCC(=O)O[C@H]1CO[C@H]2[C@@H]1OC[C@H]2O[N+](=O)[O-] [Example 15, (1S,11S,14S,15S,10R)-15-Methyl-5-phenylcarbonyloxytetracyclo(8.7.0.0<2,7>0.0<11,15>)heptadeca-2,4,6-trien-14-yl(1S,2S,5S,6R)-6-(nitrooxy)-4,8-dioxabicyclo(3.3.0)oct-2-yl butane-1,4-dioate] | > 80
2 | C[C@]12CC[C@@H]3c4ccc(OC(=O)CC5(SN=O)C6CC7CC(C6)CC5C7)cc4CC[C@H]3[C@@H]1CC[C@@H]2O (stereo partly drawn) [Example 18, (1S,11S,14S,15S,10R)-14-hydroxy-15-methyltetracyclo(8.7.0.0<2,7>0.0<11,15>)heptadeca-2,4,6-trien-5-yl 2-(2-(nitrosothio)adamantan-2-yl)acetate] | 9
3 | C[C@]12CC[C@@H]3c4ccc(OC(=O)CCC(=O)OCCC5(SN=O)C6CC7CC(C6)CC5C7)cc4CC[C@H]3[C@@H]1CC[C@@H]2O (stereo partly drawn) [Example 25, (1S,11S,14S,15S,10R)-14-Hydroxy-15-methyltetracyclo(8.7.0.0<2,7>0.0<11,15>)heptadeca-2,4,6-trien-5-yl 2-(2-(nitrosothio)adamantan-2-yl)ethyl butane-1,4-dioate] | 4
4 | CC1(C)CCC(CCOC(=O)CCC(=O)Oc2ccc3c(c2)CC[C@@H]2[C@@H]3CC[C@]3(C)[C@@H](O)CC[C@@H]23)(SN=O)CC1 [Example 28i, (1S,11S,14S,15S,10R)-14-Hydroxy-15-methyltetracyclo(8.7.0.0<2,7>0.0<11,15>)heptadeca-2,4,6-trien-5-yl 2-(4,4-dimethyl-1-(nitrosothio)cyclohexyl)ethyl butane-1,4-dioate] | 13

Same assay, conditions: viable cell count (Trypan Blue exclusion) ~68 hours after compound addition, n=4

Row | Structure (SMILES) | IC 50 for the inhibition of proliferation of vascular smooth muscle cells, Nitrosated and/or Nitrosylated Compound | IC 50 for the inhibition of proliferation of vascular smooth muscle cells, Non-nitrosated and/or Non-nitrosylated Compound
5 | CN(CCO[N+](=O)[O-])C(=O)CO/N=C1\C[C@@H]2[C@H](CC[C@]3(C)[C@@H](O)CC[C@@H]23)c2ccc(O)cc21 [35 b] | Non-inhibitory | –
6 | C[C@]12CC[C@@H]3c4ccc(OC(=O)CC5(S)C6CC7CC(C6)CC5C7)cc4CC[C@H]3[C@@H]1CC[C@@H]2OC(=O)C(F)(F)F (stereo partly drawn) [Example 17b, (1S,11S,14S,15S,10R)-15-methyl-5-(2-(2-sulfanyladamantan-2-yl)acetyloxy)tetracyclo(8.7.0.0<2,7>0.0<11,15>)heptadeca-2,4,6-trien-14-yl 2,2,2-trifluoroacetate] | – | cytostatic
7 | C[C@]12CC[C@@H]3c4ccc(OC(=O)CC5(SN=O)C6CC7CC(C6)CC5C7)cc4CC[C@H]3[C@@H]1CC[C@@H]2OC(=O)C(F)(F)F (stereo partly drawn) [Example 17c, (1S,11S,14S,15S,10R)-15-Methyl-5-(2-(2-(nitrosothio)adamantan-2-yl)acetyloxy)tetracyclo(8.7.0.0<2,7>0.0<11,15>)heptadeca-2,4,6-trien-14-yl 2,2,2-trifluoroacetate] | Non-inhibitory | –

Same assay, conditions: viable cell count (Trypan Blue exclusion) ~68 hours after compound addition, n=4, read-out: IC 50 for the inhibition of proliferation of vascular smooth muscle cells, Non-nitrosated and/or Non-nitrosylated Compound

Row | Structure (SMILES) | IC50 [µM]
8 | CC1(C)CCC(S)(CCOC(=O)CCC(=O)Oc2ccc3c(c2)CC[C@@H]2[C@@H]3CC[C@]3(C)[C@@H](O)CC[C@@H]23)CC1 [Example 28h, (1S,11S,14S,15S,10R)-14-hydroxy-15-methyltetracyclo(8.7.0.0<2,7>0.0<11,15>)heptadeca-2,4,6-trien-5-yl 2-(4,4-dimethyl-1-sulfanylcyclohexyl)ethyl butane-1,4-dioate] | 14
9 | C[C@]12CC[C@@H]3c4ccc(OC(=O)CCC(=O)OCCC5(S)C6CC7CC(C6)CC5C7)cc4CC[C@H]3[C@@H]1CC[C@@H]2O (stereo partly drawn) [Example 30, (1S,11S,14S,15S,10R)-14-Hydroxy-15-methyltetracyclo(8.7.0.0<2,7>0.0<11,15>)heptadeca-2,4,6-trien-5-yl 2-(2-sulfanyladamantan-2-yl)ethyl butane-1,4-dioate] | 4
10 | C[C@]12CC[C@@H]3c4ccc(O)cc4C(=NOCC(=O)O)C[C@H]3[C@@H]1CC[C@@H]2O [Example 35a, 2-(((1S,11S,14S,15S,10R)-5,14-dihydroxy-15-methyltetracyclo(8.7.0.0<2,7>0.0<11-15>)heptadeca-2,4,6-trien-8-ylidene)azamethoxy)acetic acid, reference compound] | > 80
11 | C[C@]12CC[C@@H]3c4ccc(OC(=O)CC5(S)C6CC7CC(C6)CC5C7)cc4CC[C@H]3[C@@H]1CC[C@@H]2O (stereo partly drawn) [Example 49, (1S,11S,14S,15S,10R)-14-hydroxy-15-methyltetracyclo(8.7.0.0<2,7>0.0<11,15>)heptadeca-2,4,6-trien-5-yl 2-(2-sulfanyladamantan-2-yl)acetate] | 4

System: not given
Test: not given
Settings: not given

Row | Structure (SMILES) | melting point
12 | C[C@]12CC[C@@H]3c4ccc(OC(=O)c5ccccc5)cc4CC[C@H]3[C@@H]1CC[C@@H]2OC(=O)CCC(=O)OCCC1(S)C2CC3CC(C2)CC1C3 (some centres unmarked) | 140 to 143 °C
13 | C[C@]12CC[C@@H]3c4ccc(OC(=O)COCC(=O)O[C@H]5CO[C@H]6[C@@H]5OC[C@H]6O[N+](=O)[O-])cc4CC[C@H]3[C@@H]1CC[C@@H]2O | 146 to 149 °C
14 | C[C@]12CC[C@@H]3c4ccc(OC(=O)CCCC(=O)NCC5(SN=O)CCCCC5)cc4CC[C@H]3[C@@H]1CC[C@@H]2O | 50 to 52 °C
15 | C[C@]12CC[C@@H]3c4ccc(O)cc4/C(=N/OCC(=O)N4CCC(CO[N+](=O)[O-])CC4)C[C@H]3[C@@H]1CC[C@@H]2O | 143 to 145 °C
16 | C[C@]12CC[C@@H]3c4ccc(O)cc4/C(=N/OCC(=O)NCCO[N+](=O)[O-])C[C@H]3[C@@H]1CC[C@@H]2O | 140 °C (dec.)
17 | C[C@]12CC[C@@H]3c4ccc(O)cc4/C(=N/OCC(=O)N4CCC(CCO[N+](=O)[O-])CC4)C[C@H]3[C@@H]1CC[C@@H]2O | 102 to 105 °C
18 | CC(C)(SN=O)C1COC(=O)N1CCOC(=O)CO/N=C1\C[C@@H]2[C@H](CC[C@]3(C)[C@@H](O)CC[C@@H]23)c2ccc(O)cc21 (some centres unmarked) | 75 to 77 °C
19 | CC(C)(SN=O)C1COC(=O)N1CCOC(=O)COc1ccc2c(c1)CC[C@@H]1[C@@H]2CC[C@]2(C)[C@@H](O)CC[C@@H]12 (some centres unmarked) | 40 °C
20 | CN(CCO[N+](=O)[O-])C(=O)CO/N=C1\C[C@@H]2[C@H](CC[C@]3(C)[C@@H](O)CC[C@@H]23)c2ccc(O)cc21 | 125 to 127 °C (dec.)
21 | COc1ccc(/C=C/C(=O)Nc2ccccc2C(=O)OCC(=O)NCC(C)(C)SN=O)cc1OC [Example 1, (N-(2-Methyl-2-(nitrosothio)propyl)carbamoyl)methyl 2-((2E)-3-(3,4-dimethoxyphenyl)prop-2-enoylamino)benzoate] | 135 to 137 °C
22 | C[C@]12CC[C@@H]3c4ccc(OC(=O)CCC(=O)OCCC5(S)C6CC7CC(C6)CC5C7)cc4CC[C@H]3[C@@H]1CC[C@@H]2O (stereo partly drawn) [Example 30, (1S,11S,14S,15S,10R)-14-Hydroxy-15-methyltetracyclo(8.7.0.0<2,7>0.0<11,15>)heptadeca-2,4,6-trien-5-yl 2-(2-sulfanyladamantan-2-yl)ethyl butane-1,4-dioate] | 133 to 136 °C
23 | COc1ccc(C=C2c3ccccc3C(=O)c3ccccc32)cc1OCC(=O)N1CCC(CO[N+](=O)[O-])CC1 [Example 53, 2-(2-Methoxy-5-((10-oxo(9-anthrylidene))methyl)phenoxy)-1-(4-((nitrooxy)methyl)piperidyl)ethan-1-one] | 63 to 65 °C
